Measurements taken from US12643867B2, “Compositions and uses thereof” (University of Virginia Patent Foundation, priority 2017, dated 2026).

Assays:
[1] = target: Zeta (DGK zeta) (Homo sapiens, UniProt Q13574); test: DGK isoform % Activity screen; type: biochemical
[2] = target: T1, DGKA (Diacylglycerol kinase alpha) (Rattus norvegicus, UniProt P51556); test: SILAC LC-MS ATP acyl phosphate probe competition, recombinant DGK-HEK293T lysates; type: binding; conditions: ATP 1 mM, Ketanserin, Ritanserin 100 μM, RF001 1 mM; for SILAC ratio, DGKA C1 probe-modified peptide: site C1 (K237); for SILAC ratio, DGKA DAGKa probe-modified peptide: site DAGKa (K539); for SILAC ratio, DGKA DAGKc probe-modified peptide: site DAGKc (K377)
T1 construct: expressed in transfected cells; host or cells: HEK293T (SILAC HEK293T for LC-MS)
T1 sequence (P51556 whole entry): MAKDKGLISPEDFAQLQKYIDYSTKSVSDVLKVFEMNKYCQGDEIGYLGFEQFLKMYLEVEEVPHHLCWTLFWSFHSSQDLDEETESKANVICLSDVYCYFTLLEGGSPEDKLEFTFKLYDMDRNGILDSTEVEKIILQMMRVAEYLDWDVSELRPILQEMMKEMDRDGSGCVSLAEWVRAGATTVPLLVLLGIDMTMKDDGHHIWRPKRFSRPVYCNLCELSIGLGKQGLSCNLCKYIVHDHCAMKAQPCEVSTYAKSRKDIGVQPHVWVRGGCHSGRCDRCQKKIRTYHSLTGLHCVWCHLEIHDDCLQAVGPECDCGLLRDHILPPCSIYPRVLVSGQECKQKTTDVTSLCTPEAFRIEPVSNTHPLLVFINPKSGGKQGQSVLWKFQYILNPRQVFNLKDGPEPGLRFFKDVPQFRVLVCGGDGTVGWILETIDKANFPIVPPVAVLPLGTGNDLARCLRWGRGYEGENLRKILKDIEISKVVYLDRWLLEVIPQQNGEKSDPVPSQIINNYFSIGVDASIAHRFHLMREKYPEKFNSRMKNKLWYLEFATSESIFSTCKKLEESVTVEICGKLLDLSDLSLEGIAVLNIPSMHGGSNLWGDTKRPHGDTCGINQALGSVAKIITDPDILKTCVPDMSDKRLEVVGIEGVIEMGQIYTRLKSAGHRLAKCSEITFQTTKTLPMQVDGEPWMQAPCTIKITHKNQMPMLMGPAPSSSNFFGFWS
Method: All other vectors were gifted to Dr. Kevin Lynch (University of Virginia, School of Medicine) by Dr. Kaoru Goto (Yamagata University, School of Medicine) and Dr. Fumio Sakane (Chiba University) and were kindly shared with us: pcDNA3-FLAG-DGKA (rat), pCMV-Tag2B-FLAG-DGKQ (human), pcDNA3-DGKE-3×Flag (human), and pCMV-SPORT6-HA-DGKZ (human). HEK293T cells were plated at a concentration of 400,000 cells in complete DMEM and grown to 50-60% confluency. A polyethyleneimine (PEI) stock solution was prepared (1 mg/mL, pH 7.4) and filter sterilized. Serum-free DMEM (600 μL) was mixed gently with 2.6 μg DNA and 20 μL of sterile PEI (1 mg/mL, pH 7.4) in a sterile microfuge tube. Mixtures were incubated for 30 min at 25° C. The mixture was then added drop-wise to each 10 cm^2 plate, rocked back and forth to mix, and placed back in the incubator. Cell pellets were harvested after two full days of growth, snap-frozen in liquid N2, and stored at −80° C. until use. Recombinant proteins were produced by transient transfection in SILAC HEK293T cells using the procedure described above, except that cells were plated at a concentration of 1×10^6 cells per 10 cm^2 plate and grown to ˜70% confluency prior to introducing transfection mixture.
Proteomes were diluted to 2 mg/ml in kinase buffer. The light and heavy proteomes (0.5 mg, 250 μL total reaction volume) were pre-treated with vehicle or compound, respectively (5 μL, DMSO (light) or 50× stock in DMSO (heavy)), mixed gently, and incubated at 25° C. for 30 min. […] After incubation, matched light and heavy proteomes were transferred and mixed in a 1:1 ratio in a two-dram vial containing 4:1:3 MeOH/CHCl3/H2O (2 mL MeOH, 500 AL CHCl3, 1.5 mL H2O) for extraction of proteins to remove excess probe, quickly vortexed, and centrifuged at 1,400×g for 3 min to pellet protein. Organic and aqueous layers were removed using a Pasteur pipette, and the protein pellet was transferred to a screw-top tube in 600 μL MeOH. A second extraction was performed by adding CHCl3 (150 μL) and H2O (600 μL) to each sample, vortexed, and centrifuged at 1,400×g for 3 min to pellet protein. Organic and aqueous layers were removed by pipetting. MeOH added to pellet (600 μL) and pellets were re-suspended by sonication (3×1 sec pulse, 20% amplitude) for a final extraction. Samples were then centrifuged at 17,000×g for 5 min to pellet protein and MeOH was removed by pipetting. […] To desalt the samples, each was transferred to a two-dram glass vial, and to the vial 4:1:2 MeOH/CHCl3/H2O (2 mL MeOH, 500 AL CHCl3, 1 mL H2O) was added. The vials were vortexed quickly, spun at 1.400×g for 3 min to pellet protein, and aqueous and organic layers were removed using a Pasteur pipette. The resulting protein pellet was transferred to a screw-top tube in 600 μL MeOH, and then CHCl3 (150 μL) and HO (600 μL) were added to extract protein a second time. The samples were vortexed quickly, centrifuged at 1,400×g to pellet protein, and the aqueous and organic layers were removed by pipetting. Resulting protein pellet was suspended in MeOH (600 μL) via sonication (3×1 sec pulse, 20% amplitude), centrifuged at 17,000×g for 5 min to pellet protein, and MeOH removed by pipetting. Protein pellets were then re-suspended in 25 mM ammonium bicarbonate (500 μL) and digested with 7.5 μg Trypsin/Lys-C(Promega, 15 μL, 0.5 μg/μL) for 3 h at 37° C. Avidin-agarose beads (Thermo Scientific Pierce, 100 AL aliquot per sample) were washed three times by adding 10 mL DPBS, centrifuged at 1,400×g for 1 min, and decanting. This wash step was repeated for a total of 3 times. Digested protein samples were mixed with washed avidin beads (100 μL) and brought to a volume of 5.5 mL with DPBS in a 15 mL conical and rotated for 1 h to enrich samples for the covalent desthiobiotin modification. The beads were washed with 25 mM ammonium bicarbonate (3× with 10 mL, centrifuge at 1,400×g for 3 min, decant) and then H2O (3× with 10 mL, centrifuge at 1,400×g for 3 min, decant).

Zeta (DGK zeta), sequence (Q13574 whole entry, canonical isoform): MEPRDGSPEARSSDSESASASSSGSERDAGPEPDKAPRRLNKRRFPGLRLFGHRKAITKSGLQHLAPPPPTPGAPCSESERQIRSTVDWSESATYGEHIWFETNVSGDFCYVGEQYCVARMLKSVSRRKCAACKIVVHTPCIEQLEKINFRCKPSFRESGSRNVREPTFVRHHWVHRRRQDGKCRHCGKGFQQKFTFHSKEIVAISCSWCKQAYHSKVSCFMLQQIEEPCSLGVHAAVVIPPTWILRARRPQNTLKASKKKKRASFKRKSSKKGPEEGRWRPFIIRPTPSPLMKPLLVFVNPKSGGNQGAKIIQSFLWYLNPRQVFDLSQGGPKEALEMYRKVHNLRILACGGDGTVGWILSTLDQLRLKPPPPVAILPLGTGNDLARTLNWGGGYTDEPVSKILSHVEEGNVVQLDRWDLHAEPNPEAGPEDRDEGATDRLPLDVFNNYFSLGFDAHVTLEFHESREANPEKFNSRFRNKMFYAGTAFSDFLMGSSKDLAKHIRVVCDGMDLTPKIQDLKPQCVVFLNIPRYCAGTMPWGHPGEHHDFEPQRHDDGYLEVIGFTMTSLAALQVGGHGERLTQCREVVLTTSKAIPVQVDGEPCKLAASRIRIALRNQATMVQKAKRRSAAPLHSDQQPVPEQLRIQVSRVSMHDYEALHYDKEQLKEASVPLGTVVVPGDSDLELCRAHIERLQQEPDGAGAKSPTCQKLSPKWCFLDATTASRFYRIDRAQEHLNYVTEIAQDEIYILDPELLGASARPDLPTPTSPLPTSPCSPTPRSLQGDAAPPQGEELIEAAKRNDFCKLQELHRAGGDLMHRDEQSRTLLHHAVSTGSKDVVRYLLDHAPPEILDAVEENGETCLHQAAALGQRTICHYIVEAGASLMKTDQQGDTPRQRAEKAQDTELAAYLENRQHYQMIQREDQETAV

| SMILES | activity at 100 µM [1] [%] | SILAC ratio, DGKA C1 probe-modified peptide [2] | SILAC ratio, DGKA DAGKa probe-modified peptide [2] | SILAC ratio, DGKA DAGKc probe-modified peptide [2] | activity at 1000 µM ([1]; read-out: 1 mM % Activity, Zeta) [%] |
| --- | --- | --- | --- | --- | --- |
| O=C(c1ccc(F)cc1)C1CCN(CCn2c(=O)[nH]c3ccccc3c2=O)CC1 [Ketanserin] | 90 | 1.4 | 1.3 | 1.2 |  |
| Fc1ccc(C(=C2CCNCC2)c2ccc(F)cc2)cc1 [RF001, 4-(Bis(4-fluorophenyl)methylene) piperidine] | 80 | 12.6 | 9.1 | 1.7 | 0 |
| Cc1nc2sccn2c(=O)c1CCN1CCC(=C(c2ccc(F)cc2)c2ccc(F)cc2)CC1 [Ritanserin] | 86 | 7.0 | 7.0 | 2.0 |  |
